pKi: −log10 of the molar value.
Biological target: T1, human DHFR (Homo sapiens, UniProt P00374)
T1 sequence (P00374 1-187): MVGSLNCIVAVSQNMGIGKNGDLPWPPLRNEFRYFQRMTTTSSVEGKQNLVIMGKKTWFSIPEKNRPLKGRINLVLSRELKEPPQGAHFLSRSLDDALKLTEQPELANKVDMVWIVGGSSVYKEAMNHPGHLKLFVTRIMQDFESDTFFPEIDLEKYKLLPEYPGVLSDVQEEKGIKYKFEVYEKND
Test: enzyme kinetic assay
Type: biochemical

SMILES: CC1(C)N=C(N)N=C(N)N1OCCCOc1cc(Cl)c(Cl)cc1Cl [WR99210]
- pKi: 7.92
